One experiment concerns GDF8 signaling (p-SMAD-3 (Ser423/425)). Kind of experiment: AlphaScreen SureFire SMAD3 (p-Ser423/425) assay, GDF8-stimulated cells (GDF pSMAD). Type of experiment: cell-based. The conditions noted are these: MPC11; GDF8-stimulated; p-SMAD3 AlphaScreen; read-out: GDF pSMAD (MPC11) (inhibition of GDF8 signaling). (In Alpha technology, singlet oxygen from a donor bead excites a nearby acceptor bead.)
As for `Cc1cc(-c2ncccc2-c2ccn3ncc(C(=O)NC4CC5CCC(C4)N5C)c3c2)ccc1F` (stereo not drawn) [compound 716, endo-5-(2-(4-Fluoro-3-methylphenyl)pyridin-3-yl)-N-(8-methyl-8-azabicyclo[3.2.1]octan-3-yl)pyrazolo[1,5-a]pyridine-3-carboxamide], the IC50 stood at 5030 nM.

Staying with this experiment, now noted: Mus musculus, MPC-11, MPC11; GDF8-stimulated; p-SMAD3 AlphaScreen; read-out: GDF pSMAD (MPC11) (inhibition of GDF8 signaling).
For `Cc1cc(-c2ncccc2-c2ccc3ncc(C(=O)NCCCN4CCN(C)CC4)n3c2)ccc1F` [compound 591, 6-(2-(4-Fluoro-3-methylphenyl)pyridin-3-yl)-N-(3-(4-methylpiperazin-1-yl)propyl)imidazo[1,2-a]pyridine-3-carboxamide], the IC50 amounted to 333 nM.

Consider `Fc1ccccc1-c1ncccc1-c1ccc2[nH]ncc2c1` [Compound 61, 5-(2-(2-Fluorophenyl)pyridin-3-yl)-1H-indazole], for which the IC50 was determined as 3880 nM.

Consider `c1cc(-c2ncccc2-c2ccc3ncccc3n2)cc(C2CC2)c1` [compound 537, 2-(2-(3-Cyclopropylphenyl)pyridin-3-yl)-1,5-naphthyridine], for which the IC50 was found to be 111 nM.

In the case of `Cc1cc(-c2ncccc2-c2ccc3ncc(=O)[nH]c3c2)ccc1F` [compound 891, 7-(2-(4-Fluoro-3-methylphenyl)pyridin-3-yl)quinoxalin-2(1H)-one], the IC50 came to 632 nM.

Regarding `Cc1cc(-c2ncccc2-c2ccc3ncc(C(=O)O)n3c2)ccc1F` [compound 579, 6-(2-(4-Fluoro-3-methylphenyl)pyridin-3-yl)imidazo[1,2-a]pyridine-3-carboxylic acid], the IC50 amounted to 12400 nM.

Consider `COc1cc(NC(=O)c2cnc3ccc(-c4cccnc4-c4ccc(F)c(C)c4)cn23)cc(OC)c1OC` [compound 573, 6-(2-(4-Fluoro-3-methylphenyl)pyridin-3-yl)-N-(3,4,5-trimethoxyphenyl)imidazo[1,2-a]pyridine-3-carboxamide], for which the IC50 was determined as 1210 nM.

For the compound `c1cc(-c2ncccc2-c2ccn3cncc3c2)cc(C2CC2)c1` [compound 596, 7-(2-(3-Cyclopropylphenyl)pyridin-3-yl)imidazo[1,5-a]pyridine], the IC50 is 204 nM.

Regarding `FC(F)(F)c1cccc(-c2ncccc2-c2ccn3ncnc3c2)c1` [compound 879, 7-(2-(3-(Trifluoromethyl)phenyl)pyridin-3-yl)-[1,2,4]triazolo[1,5-a]pyridine], the IC50 came out at 1480 nM.

`COc1ccc(F)c(-c2ncccc2-c2ccc3ncnc(N)c3c2)c1` [compound 473, 6-(2-(2-Fluoro-5-methoxyphenyl)pyridin-3-yl)quinazolin-4-amine]: the IC50 stood at 292 nM.

Consider `FC(F)(F)Oc1cccc(-c2ncccc2-c2ccc3ncnn3c2)c1` [compound 780, 6-(2-(3-(Trifluoromethoxy)phenyl)pyridin-3-yl)-[1,2,4]triazolo[1,5-a]pyridine], for which the IC50 was determined as 730 nM.

For `Nc1ncnc2ccc(-c3cccnc3-c3cccc(F)c3)cc12` [compound 461, 6-(2-(3-Fluorophenyl)pyridin-3-yl)quinazolin-4-amine], the IC50 was found to be 551 nM.

On to `CC(C)Nc1ncnc2ccc(-c3cccnc3-c3ccc(F)c(Cl)c3)cc12` [compound 401, 6-(2-(3-Chloro-4-fluorophenyl)pyridin-3-yl)-N-isopropylquinazolin-4-amine], for which the IC50 was found to be 5890 nM.

`C1=C(c2cccc(-c3ncccc3-c3cnc4[nH]ncc4c3)c2)CCC1` [Compound 170, 5-(2-(3-Cyclopentenylphenyl)pyridin-3-yl)-1H-pyrazolo[3,4-b]pyridine]: the IC50 is 1960 nM.

As to `Cc1cc(-c2ncccc2-c2ccc3ncnc(NCCCN4CCOCC4)c3c2)ccc1F` [compound 424, 6-(2-(4-Fluoro-3-methylphenyl)pyridin-3-yl)-N-(3-morpholinopropyl)quinazolin-4-amine], the IC50 came to 2430 nM.

Regarding `Fc1ccc(-c2ncccc2-c2ccc3ncnn3n2)cc1Cl` [compound 953, 6-(2-(3-Chloro-4-fluorophenyl)pyridin-3-yl)-[1,2,4]triazolo[1,5-b]pyridazine], the IC50 came out at 661 nM.

These data come from patent US10858335B2 (Rigel Pharmaceuticals, Inc., priority 2014, dated 2020).
